We go through two compounds from EPA's ToxValDB 9.5 (doi:10.2903/j.efsa.2009.1390).

The subject of one data set is Anas platyrhynchos. Conditions: acute; oral; unspecified; mortality.
For the next data set, the system named is Typhlodromus pyri. Briefly: LR50; higher = less toxic. Conditions: not reported; mortality.
Another data set has as its system Canidae. Conditions: chronic; duration: 1 years; oral; Dog Other; organ weight.
For the next data set, the system named is Apis mellifera. Conditions: acute, mortality.
Another data set has as its system Daphnia magna. Particulars: chronic/long-term; duration: 21 days; reproduction.
For the next data set, the system named is Rattus norvegicus. Conditions: acute; oral; F; mortality.
The test system of a further data set is Oryctolagus sp. Particulars: reproduction developmental; body weight.
Another data set deals with Bibionidae. Particulars: chronic/long-term; duration: 28 days.

Structures are written as SMILES. In brackets after ≈: the same amount, converted by molar mass. Bounds are passed on as bounds.

Take `Nc1c(Cl)c(Cl)nc(C(=O)[O-])c1Cl.[K+]` [Picloram potassium salt]: the LD50 with Anas platyrhynchos was > 2250 mg/kg-day. Further, the LC50 in the data set with Colinus virginianus (acute, oral, diet, mortality) was > 2200 mg/kg-day.
In the case of `Nc1c(Cl)c(Cl)nc(C(=O)O)c1Cl` [Picloram], in the data set with Typhlodromus pyri, the LR50 was > 23.4 g/ha. Besides, the NOAEL turned out to be 35 mg/kg-day in the data set on Canidae and 30 mg/kg-day in the data set with Oryctolagus sp.. The LD50 is > 100 µg/piece in the data set on Apis mellifera (dermal); > 74 µg/piece in the data set on Apis mellifera (oral, unspecified); 4010 mg/kg-day with Rattus norvegicus. Besides, the NOEC was 6.79 mg/L with Daphnia magna; 0.55 mg/L in the data set on Oncorhynchus mykiss (chronic/long-term, duration: 70 days, development); 100 mg/L in the data set with Bibionidae; 0.167 mg/kg with Tagia sp. (chronic/long-term, duration: 8 weeks); 65 mg/kg-day with Colinus virginianus (reproduction developmental). The LC50 in the data set on Oncorhynchus mykiss (acute, duration: 96 hours, mortality) was 8.8 µg/mL (≈ 36.4 µM); in the data set with Tagia sp. (acute, duration: 14 days, mortality) it was > 4480 mg/kg.

For orientation: NOAEL means the highest tested level that showed no adverse finding.
